Measurements reported in US20100267561A1, “HERBICIDAL PYRIDAZINONE DERIVATIVES” (priority 2007, published 2010).
Read-outs that look alike come from different tables or passages of the source.

What was measured:
Assay type in all cases: in vivo
[1] = tested on: giant foxtail (Setaria faberi); assay: Test A pre-/postemergence plant response; conditions: Setaria faberi, 240 h, read-out: Plant response rating, Foxtail, Giant; for pest or weed control at 125 g/ha: 125 g ai/ha; for pest or weed control at 500 g/ha: 500 g ai/ha
Outline: (§1)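 Ratings are visual, 0–100, where 100 means complete control and 0 no effect, taken roughly 10 days after treatment by comparison with untreated controls. Formulation: non-phytotoxic solvent mixture with surfactant.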

[2] = tested on: large crabgrass (Digitaria sanguinalis); assay: Test A pre-/postemergence plant response; conditions: Digitaria sanguinalis, 240 h, read-out: Plant response rating, Crabgrass, Large; for pest or weed control at 125 g/ha: 125 g ai/ha; for pest or weed control at 500 g/ha: 500 g ai/ha
Outline: as §1

[3] = tested on: velvetleaf (Abutilon theophrasti); assay: Test A pre-/postemergence plant response
Outline: as §1

[4] = tested on: morningglory (Ipomoea coccinea); assay: Test A pre-/postemergence plant response
Outline: as §1

[5] = tested on: corn (Zea mays); assay: Test A pre-/postemergence plant response; conditions: Zea mays, 240 h; for Corn plant response rating (crop injury, 0 = no effect, 100 = complete kill) at 125 g/ha: 125 g ai/ha; for Corn plant response rating (crop injury, 0 = no effect, 100 = complete kill) at 500 g/ha: 500 g ai/ha
Outline: as §1

[6] = tested on: barnyardgrass (Echinochloa crus-galli); assay: Test A pre-/postemergence plant response; conditions: Echinochloa crus-galli, 240 h, read-out: Plant response rating, Barnyardgrass; for pest or weed control at 125 g/ha: 125 g ai/ha; for pest or weed control at 500 g/ha: 500 g ai/ha
Outline: as §1

[7] = tested on: pigweed (Amaranthus retroflexus); assay: Test A pre-/postemergence plant response; conditions: Amaranthus retroflexus, 240 h, read-out: Plant response rating, Pigweed; for pest or weed control at 125 g/ha: 125 g ai/ha; for pest or weed control at 500 g/ha: 500 g ai/ha
Outline: as §1

[8] = tested on: wheat (Triticum aestivum); assay: Test A pre-/postemergence plant response; conditions: Triticum aestivum, 240 h, read-out: Plant response rating, Wheat; for plant injury at 125 g/ha: 125 g ai/ha; for plant injury at 500 g/ha: 500 g ai/ha
Outline: as §1

[9] = tested on: green foxtail (Setaria viridis); assay: Test B pre-/postemergence plant response; conditions: for Foxtail, Green plant response rating: 8 g ai/ha; for pest or weed control at 16 g/ha / pest or weed control at 31 g/ha / pest or weed control at 62 g/ha: Setaria viridis, read-out: Plant response rating, Foxtail, Green; for pest or weed control at 16 g/ha: 16 g ai/ha; for pest or weed control at 31 g/ha: 31 g ai/ha; for pest or weed control at 62 g/ha: 62 g ai/ha
Outline: (§2)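 Preemergence and postemergence (plants 2-18 cm, 1- to 4-leaf stage) applications used test chemicals in a non-phytotoxic solvent with surfactant. Plants were held in a greenhouse 13 to 15 days, then rated visually against controls on a 0-100 scale (0 no effect, 100 complete control).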

[10] = tested on: johnsongrass (Sorghum halepense); assay: Test B pre-/postemergence plant response; conditions: for Johnsongrass plant response rating: 8 g ai/ha; for pest or weed control at 16 g/ha / pest or weed control at 31 g/ha / pest or weed control at 62 g/ha: Sorghum halepense, read-out: Plant response rating, Johnsongrass; for pest or weed control at 16 g/ha: 16 g ai/ha; for pest or weed control at 31 g/ha: 31 g ai/ha; for pest or weed control at 62 g/ha: 62 g ai/ha
Outline: as §2

[11] = tested on: wheat (Triticum aestivum); assay: Test B pre-/postemergence plant response; conditions: for Wheat plant response rating: 8 g ai/ha; for plant injury at 16 g/ha: 16 g ai/ha; for plant injury at 62 g/ha: 62 g ai/ha
Outline: as §2

[12] = post-emergence, Postemergence, 0 to 100 scale, 0 no effect, 100 complete control
[13] = pre-emergence, Preemergence, 0 to 100 scale (0 no effect, 100 complete control)
[14] = Postemergence, 125 g ai/ha, 0 to 100 scale, 0 no effect, 100 complete control
[15] = Postemergence, 500 g ai/ha, 0 to 100 scale, 0 no effect, 100 complete control
[16] = Preemergence, 125 g ai/ha, 0 to 100 scale (0 no effect, 100 complete control)
[17] = Preemergence, 500 g ai/ha, 0 to 100 scale (0 no effect, 100 complete control)
[18] = post-emergence, Postemergence, scale 0 to 100
[19] = post-emergence, Postemergence, scale 0 to 100, 0 no effect, 100 complete control
[20] = pre-emergence, Preemergence, scale 0 to 100 (0 no effect, 100 complete control)
[21] = pre-emergence, Preemergence, 0 to 100 scale, 0 no effect, 100 complete control
[22] = pre-emergence, Preemergence, scale 0 to 100

Q: Which pest or weed control at 125 g/ha [1, 12] does the source give for CCc1c(C)c(-c2ccc(Cl)cc2)nn1-c1c(O)cnn(C)c1=O [Compound 26, 4-[3-(4-chlorophenyl)-5-ethyl-4-methyl-1H-pyrazol-1-yl]-5-hydroxy-2-methyl-3(2H)-pyridazinone] here?
A: Its pest or weed control at 125 g/ha is 90%.

Q: What about the pest or weed control at 500 g/ha [1, 12] of the same compound?
A: Its pest or weed control at 500 g/ha is 100%.

Q: And the pest or weed control at 125 g/ha [1, 13]?
A: Its pest or weed control at 125 g/ha is 100%.

Q: And the pest or weed control at 500 g/ha [1, 13]?
A: Its pest or weed control at 500 g/ha is 100%.

Q: What about the pest or weed control at 125 g/ha [2, 12] of the same compound?
A: The pest or weed control at 125 g/ha was 80%.

Q: What about the pest or weed control at 500 g/ha [2, 12] of the same compound?
A: Its pest or weed control at 500 g/ha is 100%.

Q: And the pest or weed control at 125 g/ha [2, 13]?
A: The pest or weed control at 125 g/ha was 90%.

Q: And the pest or weed control at 500 g/ha [2, 13]?
A: The pest or weed control at 500 g/ha was 100%.

Q: And the “Plant response rating, Velvetleaf” value [3, 14]?
A: The value was 0.

Q: And the “Plant response rating, Velvetleaf” value [3, 15]?
A: The value was 20.

Q: And the “Plant response rating, Velvetleaf” value [3, 16]?
A: The value was 0.

Q: What about the “Plant response rating, Velvetleaf” value [3, 17] of the same compound?
A: Its value is 0.

Q: And the “Plant response rating, Morningglory” value [4, 14]?
A: The value was 0.

Q: And the “Plant response rating, Morningglory” value [4, 15]?
A: Its value is 20.

Q: And the “Plant response rating, Morningglory” value [4, 16]?
A: The value was 0.

Q: And the “Plant response rating, Morningglory” value [4, 17]?
A: The value was 0.

Q: And the Corn plant response rating (crop injury, 0 = no effect, 100 = complete kill) at 125 g/ha [5, 12]?
A: The Corn plant response rating (crop injury, 0 = no effect, 100 = complete kill) at 125 g/ha was 60%.

Q: What about the Corn plant response rating (crop injury, 0 = no effect, 100 = complete kill) at 500 g/ha [5, 12] of the same compound?
A: Its Corn plant response rating (crop injury, 0 = no effect, 100 = complete kill) at 500 g/ha is 100%.

Q: What about the Corn plant response rating (crop injury, 0 = no effect, 100 = complete kill) at 125 g/ha [5, 13] of the same compound?
A: The Corn plant response rating (crop injury, 0 = no effect, 100 = complete kill) at 125 g/ha was 50%.

Q: What about the Corn plant response rating (crop injury, 0 = no effect, 100 = complete kill) at 500 g/ha [5, 13] of the same compound?
A: Its Corn plant response rating (crop injury, 0 = no effect, 100 = complete kill) at 500 g/ha is 90%.

Q: And the pest or weed control at 125 g/ha [6, 12]?
A: Its pest or weed control at 125 g/ha is 100%.

Q: And the pest or weed control at 500 g/ha [6, 12]?
A: The pest or weed control at 500 g/ha was 100%.

Q: And the pest or weed control at 125 g/ha [6, 13]?
A: Its pest or weed control at 125 g/ha is 100%.

Q: And the pest or weed control at 500 g/ha [6, 13]?
A: Its pest or weed control at 500 g/ha is 100%.

Q: What about the pest or weed control at 125 g/ha [7, 12] of the same compound?
A: Its pest or weed control at 125 g/ha is 0%.

Q: What about the pest or weed control at 500 g/ha [7, 12] of the same compound?
A: The pest or weed control at 500 g/ha was 0%.

Q: What about the pest or weed control at 125 g/ha [7, 13] of the same compound?
A: The pest or weed control at 125 g/ha was 0%.

Q: What about the pest or weed control at 500 g/ha [7, 13] of the same compound?
A: The pest or weed control at 500 g/ha was 0%.

Q: What about the plant injury at 125 g/ha [8, 12] of the same compound?
A: The plant injury at 125 g/ha was 0%.

Q: What about the plant injury at 500 g/ha [8, 12] of the same compound?
A: The plant injury at 500 g/ha was 60%.

Q: What about the plant injury at 125 g/ha [8, 13] of the same compound?
A: The plant injury at 125 g/ha was 20%.

Q: What about the plant injury at 500 g/ha [8, 13] of the same compound?
A: Its plant injury at 500 g/ha is 70%.

Q: What about the “Foxtail, Green plant response rating” value ([9]; postemergence, 0-100 scale) of the same compound?
A: Its value is 60.

Q: And the “Foxtail, Green plant response rating” value ([9]; Preemergence, scale 0 to 100)?
A: The value was 98.

Q: And the pest or weed control at 16 g/ha [9, 18]?
A: The pest or weed control at 16 g/ha was 80%.

Q: What about the pest or weed control at 31 g/ha [9, 19] of the same compound?
A: The pest or weed control at 31 g/ha was 80%.

Q: And the pest or weed control at 62 g/ha [9, 19]?
A: The pest or weed control at 62 g/ha was 98%.

Q: What about the pest or weed control at 16 g/ha [9, 20] of the same compound?
A: The pest or weed control at 16 g/ha was 100%.

Q: What about the pest or weed control at 31 g/ha [9, 21] of the same compound?
A: The pest or weed control at 31 g/ha was 100%.

Q: And the pest or weed control at 62 g/ha [9, 22]?
A: Its pest or weed control at 62 g/ha is 100%.

Q: And the “Johnsongrass plant response rating” value ([10]; postemergence, 0-100 scale)?
A: Its value is 0.

Q: What about the “Johnsongrass plant response rating” value ([10]; Preemergence, scale 0 to 100) of the same compound?
A: Its value is 0.

Q: And the pest or weed control at 16 g/ha [10, 18]?
A: The pest or weed control at 16 g/ha was 0%.

Q: And the pest or weed control at 31 g/ha [10, 19]?
A: The pest or weed control at 31 g/ha was 20%.

Q: And the pest or weed control at 62 g/ha [10, 19]?
A: The pest or weed control at 62 g/ha was 20%.

Q: What about the pest or weed control at 16 g/ha [10, 20] of the same compound?
A: Its pest or weed control at 16 g/ha is 0%.

Q: What about the pest or weed control at 31 g/ha [10, 21] of the same compound?
A: Its pest or weed control at 31 g/ha is 0%.

Q: What about the pest or weed control at 62 g/ha [10, 22] of the same compound?
A: The pest or weed control at 62 g/ha was 50%.

Q: What about the “Wheat plant response rating” value ([11]; postemergence, 0-100 scale) of the same compound?
A: The value was 0.

Q: What about the “Wheat plant response rating” value ([11]; Preemergence, scale 0 to 100) of the same compound?
A: The value was 0.

Q: And the plant injury at 16 g/ha ([11]; Triticum aestivum, post-emergence, Postemergence, scale 0 to 100, read-out: Plant response rating, Wheat)?
A: Its plant injury at 16 g/ha is 0%.

Q: What about the plant injury at 62 g/ha ([11]; Triticum aestivum, post-emergence, Postemergence, scale 0 to 100, 0 no effect, 100 complete control, read-out: Plant response rating, Wheat) of the same compound?
A: The plant injury at 62 g/ha was 5%.

Q: And the plant injury at 16 g/ha ([11]; Triticum aestivum, pre-emergence, Preemergence, scale 0 to 100 (0 no effect, 100 complete control), read-out: Plant response rating, Wheat)?
A: Its plant injury at 16 g/ha is 0%.

Q: And the plant injury at 31 g/ha ([11]; Triticum aestivum, pre-emergence, Preemergence, 31 g ai/ha, 0 to 100 scale, 0 no effect, 100 complete control, read-out: Plant response rating, Wheat)?
A: The plant injury at 31 g/ha was 0%.

Q: What about the plant injury at 62 g/ha ([11]; Triticum aestivum, pre-emergence, Preemergence, scale 0 to 100, read-out: Plant response rating, Wheat) of the same compound?
A: The plant injury at 62 g/ha was 0%.
